Assays:
C. globosum = test: agar plate method, inhibition of fungus growth; format: cell-based; settings: for percent inhibition (retardation) of the fungal growth, C. globosum: aqueous solution
Procedure: (§1) The efficacy of aqueous solutions of alkyldimethylbenzyl ammonium lauryl sulfate and didecyldimethyl ammonium lauryl sulfate to inhibit fungus growth was evaluated by the agar plate method known in the art. Also tested were two commercially known biocides: didecyldimethyl ammonium chloride (Bardac® 2080) and alkyldimethylbenzyl ammonium chloride (Barquat® MB-80).
(§2) The test data are reported as a percent inhibition (retardation) of the fungal growth.

G. trabeum = test: agar plate method, inhibition of fungus growth; format: cell-based; settings: for percent inhibition (retardation) of the fungal growth, G. trabeum: aqueous solution
Procedure: as §1, §2

P. placenta = test: agar plate method, inhibition of fungus growth; format: cell-based; settings: for percent inhibition (retardation) of the fungal growth, P. placenta: aqueous solution
Procedure: as §1, §2

T. versicolor = test: agar plate method, inhibition of fungus growth; format: cell-based; settings: for percent inhibition (retardation) of the fungal growth, T. versicolor: aqueous solution
Procedure: as §1, §2

[1] = tested on: brown-rot fungus G. trabeum; test: standard soil block test (American Wood Preservation Association E10) on extruded composites; settings: extruded samples containing the salt vs conventional lubricant control; 22 weeks G. trabeum
Procedure: The efficacy of extruded samples containing alkyldimethylbenzyl ammonium lauryl sulfate or didecyldimethyl ammonium lauryl sulfate to inhibit fungal growth was evaluated by the standard soil block test method (American Wood Preservation Association E10) known in the art. The biocide effectiveness is determined by % weight loss in wood component of the tested samples. The sample blocks (13 mm×14 mm×14 mm) were exposed to the brown-rot fungus G. trabeum for 22 weeks, with four replicates per treatment.

[2] = Chaetomium globosum, read-out: percent inhibition (retardation) of the fungal growth, C. globosum
[3] = Gloeophyllum trabeum, read-out: percent inhibition (retardation) of the fungal growth, G. trabeum
[4] = read-out: percent inhibition (retardation) of the fungal growth, P. placenta
[5] = Trametes versicolor, read-out: percent inhibition (retardation) of the fungal growth, T. versicolor

Didecyldimethyl ammonium lauryl sulfate
percent inhibition (retardation) of the fungal growth, C. globosum (C. globosum; 50 ppm): 68.0% | percent inhibition (retardation) of the fungal growth, C. globosum (C. globosum; 500 ppm): 78.7% | percent inhibition (retardation) of the fungal growth, G. trabeum (G. trabeum; 50 ppm): 58.0% | percent inhibition (retardation) of the fungal growth, G. trabeum (G. trabeum; 500 ppm): 80.8% | percent inhibition (retardation) of the fungal growth, P. placenta (P. placenta; 50 ppm): 82.6% | percent inhibition (retardation) of the fungal growth, P. placenta (P. placenta; 500 ppm): 86.0% | percent inhibition (retardation) of the fungal growth, T. versicolor (T. versicolor; 50 ppm): 44.0% | percent inhibition (retardation) of the fungal growth, T. versicolor (T. versicolor; 500 ppm): 81.3% | weight loss compared with control samples [1]: significantly lower weight loss than the control samples

alkyldimethylbenzyl ammonium chloride [reference compound]
percent inhibition (retardation) of the fungal growth, C. globosum (C. globosum; 50 ppm): 63.8% | percent inhibition (retardation) of the fungal growth, C. globosum (C. globosum; 500 ppm): 81.8% | percent inhibition (retardation) of the fungal growth, G. trabeum (G. trabeum; 50 ppm): 82.1% | percent inhibition (retardation) of the fungal growth, G. trabeum (G. trabeum; 500 ppm): 89.0% | percent inhibition (retardation) of the fungal growth, P. placenta (P. placenta; 50 ppm): 86.8% | percent inhibition (retardation) of the fungal growth, P. placenta (P. placenta; 500 ppm): 87.5% | percent inhibition (retardation) of the fungal growth, T. versicolor (T. versicolor; 50 ppm): 55.0% | percent inhibition (retardation) of the fungal growth, T. versicolor (T. versicolor; 500 ppm): 85.0%

CCCCCCCCCC[N+](C)(C)CCCCCCCCCC [didecyldimethyl ammonium chloride, reference compound]
inhibition at 50 ppm (C. globosum; [2]): 68.2% | inhibition at 500 ppm (C. globosum; [2]): 74.3% | inhibition at 50 ppm (G. trabeum; [3]): 78.4% | inhibition at 500 ppm (G. trabeum; [3]): 82.4% | inhibition at 50 ppm (P. placenta; [4]): 88.4% | inhibition at 500 ppm (P. placenta; [4]): 89.2% | inhibition at 50 ppm (T. versicolor; [5]): 36.8% | inhibition at 500 ppm (T. versicolor; [5]): 80.7%

alkyldimethylbenzyl ammonium lauryl sulfate
percent inhibition (retardation) of the fungal growth, C. globosum (C. globosum; 50 ppm): 64.5% | percent inhibition (retardation) of the fungal growth, C. globosum (C. globosum; 500 ppm): 75.6% | percent inhibition (retardation) of the fungal growth, G. trabeum (G. trabeum; 50 ppm): 51.7% | percent inhibition (retardation) of the fungal growth, G. trabeum (G. trabeum; 500 ppm): 82.3% | percent inhibition (retardation) of the fungal growth, P. placenta (P. placenta; 50 ppm): 83.0% | percent inhibition (retardation) of the fungal growth, P. placenta (P. placenta; 500 ppm): 86.6% | percent inhibition (retardation) of the fungal growth, T. versicolor (T. versicolor; 50 ppm): 32.2% | percent inhibition (retardation) of the fungal growth, T. versicolor (T. versicolor; 500 ppm): 72.9% | weight loss compared with control samples [1]: significantly lower weight loss than the control samples
